The record followed here is ChEMBL document CHEMBL5150067 (J Med Chem, 2022).

A short description of data set [1]: Inhibition of Hedgehog-signalling dependent purmorphamine induced osteoblast differentiation in mouse C3H 10T1/2 cells assessed as residual activity by measuring ALP expression at 10 uM incubated for 96 hrs by CDP-Star luminogenic substrate based assay relative to control. Type of data set: functional.
Data set [2] can be described thus: Inhibition of Hedgehog-signalling dependent purmorphamine induced osteoblast differentiation in mouse C3H 10T1/2 cells assessed as reduction in ALP expression incubated for 96 hrs by CDP-Star luminogenic substrate based assay. Particulars: C3H 10T1/2, 96 h; call rule not given here. In kind it is functional, cell-based.
Data set [3] addresses T1, Aryl hydrocarbon receptor (Mus musculus, UniProt P30561).
T1 sequence (P30561 whole entry): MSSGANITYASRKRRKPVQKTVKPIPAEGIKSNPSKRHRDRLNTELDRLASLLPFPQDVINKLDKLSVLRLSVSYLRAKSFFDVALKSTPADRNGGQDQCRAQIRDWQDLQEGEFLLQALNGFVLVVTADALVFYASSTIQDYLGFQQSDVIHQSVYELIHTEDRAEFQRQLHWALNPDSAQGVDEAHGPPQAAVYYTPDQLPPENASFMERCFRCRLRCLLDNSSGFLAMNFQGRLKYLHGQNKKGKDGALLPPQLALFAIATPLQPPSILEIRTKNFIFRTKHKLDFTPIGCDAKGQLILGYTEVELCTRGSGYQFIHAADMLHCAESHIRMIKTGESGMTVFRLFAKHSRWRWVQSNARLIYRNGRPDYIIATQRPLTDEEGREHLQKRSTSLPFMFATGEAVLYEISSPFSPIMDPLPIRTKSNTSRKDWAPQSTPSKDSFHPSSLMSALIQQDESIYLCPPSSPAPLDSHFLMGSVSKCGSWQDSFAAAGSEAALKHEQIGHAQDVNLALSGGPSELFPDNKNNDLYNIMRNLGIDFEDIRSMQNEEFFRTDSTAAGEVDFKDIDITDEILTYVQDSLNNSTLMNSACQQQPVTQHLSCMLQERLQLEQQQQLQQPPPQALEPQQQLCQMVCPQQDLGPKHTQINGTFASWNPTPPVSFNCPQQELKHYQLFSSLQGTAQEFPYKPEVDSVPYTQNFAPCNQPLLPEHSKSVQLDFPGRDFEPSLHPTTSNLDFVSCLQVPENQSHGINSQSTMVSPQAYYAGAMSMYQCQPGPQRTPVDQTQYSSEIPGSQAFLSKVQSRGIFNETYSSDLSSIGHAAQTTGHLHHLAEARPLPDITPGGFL
Briefly: Activation of AhR in purmorphamine-treated mouse C3H 10T1/2 cells assessed as translocation of AhR from cytoplasm to nucleus at 1 nM incubated for 24 hrs by immunostaining based analysis. Type of data set: cell-based. The conditions noted are these: c3h 10t1/2, 24 h, 0.001 µM.

Data set [4] concerns the target T1, Aryl hydrocarbon receptor. Kind of data set: Activation of AhR in purmorphamine-treated mouse C3H 10T1/2 cells assessed as upregulation of Cyp1B1 mRNA levels measured after 96 hrs by RT-qPCR analysis. Type of data set: cell-based. Particulars: c3h 10t1/2, 96 h, DDE = dose-dependent effect, dose 0.001-1 nM.

In general, IC50 refers to the concentration that inhibits the measured activity by half. Turning to `O=C1c2ccc(Br)cc2C[C@H]2c3ccccc3CCN12`, in data set [1], the Activity was determined as 44.2%. For the same molecule, the IC50 in data set [2] amounted to 4.2 nM.

As for `O=C1c2ccc(Cl)c(F)c2C[C@H]2c3ccccc3CCN12`, the Activity in data set [1] is on record as 67.2%.

On to `Cc1ccc2c(c1)C[C@H]1c3ccccc3CCN1C2=O`, for which the Activity in data set [1] is listed as 93.2%.

Consider `COc1ccc2c(c1)C[C@H]1c3ccccc3CCN1C2=O`, for which the Activity in data set [1] turned out to be 114%.

Take `O=C1c2cc(Cl)cc(Cl)c2C[C@H]2c3ccccc3CCN12`: the Activity in data set [1] was 53.2%.

On to `O=C1c2ccc(Cl)cc2C[C@H]2c3ccccc3CCN12`, for which the Activity in data set [1] was 30.4%. In addition, the IC50 in data set [2] turned out to be 1.2 nM.

On to `O=C1c2ccc(I)cc2C[C@H]2c3ccccc3CCN12`, for which the Activity in data set [1] is 57.8%.

On to `CC(C)c1ccc2c(c1)C[C@H]1c3ccccc3CCN1C2=O`, for which the Activity in data set [1] was determined as 90.1%.

With `O=C1c2ccc(C(F)(F)F)cc2C[C@H]2c3ccccc3CCN12`, in data set [1], the Activity is 33.1%. Besides, the IC50 in data set [2] worked out at 0.7 nM.

Regarding `O=C1c2ccc(Cl)c(Cl)c2C[C@H]2c3ccccc3CCN12`, in data set [1], the Activity stood at 36%. Besides, the IC50 in data set [2] is 1.1 nM.

Consider `O=C1c2cc(I)c(Cl)cc2C[C@H]2c3ccccc3CCN12`, for which the Activity in data set [1] turned out to be 30.7%. Further, in data set [2], the IC50 came to 0.004 nM.

For `O=C1c2ccc(F)cc2C[C@H]2c3ccccc3CCN12`, the Activity in data set [1] stood at 61.2%.

`O=C1c2ccccc2C[C@H]2c3ccccc3CCN12`: the Activity in data set [1] is 100%.

In the case of `O=C1c2cc(Br)c(Cl)cc2C[C@H]2c3ccccc3CCN12`, the Activity result in data set [3] is listed as “Active”; in data set [4] it was “Dde”.

Regarding `O=C1c2ccccc2C[C@H]2c3ccccc3CCCN12`, the Activity in data set [1] amounted to 134%.

As to `COc1cc2c(cc1OC)C(=O)N1CCc3cc(OC)c(OC)cc3[C@@H]1C2`, in data set [1], the Activity is given as 55.2%.

For the molecule `O=C1c2cccc(Cl)c2C[C@H]2c3ccccc3CCN12`, in data set [1], the Activity is given as 53%.

Turning to `COc1cc2c(cc1F)CCN1C(=O)c3ccccc3C[C@@H]21`, the Activity in data set [1] was determined as 127%.

Regarding `O=C1c2ccc(Cl)cc2C[C@@H]2c3ccccc3CCN12`, in data set [1], the Activity stood at 27.4%. Moreover, the IC50 in data set [2] was determined as 850 nM.

As for `COc1cc2c(cc1OC)[C@@H]1Cc3ccccc3C(=O)N1CC2`, the Activity in data set [1] is 96.5%.

`O=C1c2cc(Br)c(Cl)c(Br)c2C[C@H]2c3ccccc3CCN12`: the Activity in data set [1] stood at 27.9%. The IC50 in data set [2] was 0.36 nM.

With `COc1cc2c(cc1Cl)C[C@H]1c3ccccc3CCN1C2=O`, the Activity in data set [1] came out at 13.4%. Besides, the IC50 in data set [2] is 0.038 nM.

Consider `O=C1c2ccccc2C[C@H]2c3ccccc3CN12`, for which the Activity in data set [1] is listed as 29.2%.

For the molecule `O=C1c2ccccc2C[C@H]2c3ccc(Cl)cc3CCN12`, the Activity in data set [1] was 87%.
